{
  "source": "patent US5700446A",
  "about": "“Synthesis of ferrocenyl phenyltropane analogs and their radio-transformation to technetium neuroprobes for mapping monoamine reuptake sites” (Neuro Imaging Technologies, LLC, priority 1996, dated 1997)",
  "key": {"[1]": {"molecular_target": "T1, dopamine transporter (Rattus norvegicus, UniProt P23977)", "T1 construct": "crude membrane fraction of homogenates of rat brain corpus striatum (for the dopamine transporter); from tissue; host or cells: rat brain corpus striatum, crude membrane fraction", "T1 sequence (P23977 whole entry)": "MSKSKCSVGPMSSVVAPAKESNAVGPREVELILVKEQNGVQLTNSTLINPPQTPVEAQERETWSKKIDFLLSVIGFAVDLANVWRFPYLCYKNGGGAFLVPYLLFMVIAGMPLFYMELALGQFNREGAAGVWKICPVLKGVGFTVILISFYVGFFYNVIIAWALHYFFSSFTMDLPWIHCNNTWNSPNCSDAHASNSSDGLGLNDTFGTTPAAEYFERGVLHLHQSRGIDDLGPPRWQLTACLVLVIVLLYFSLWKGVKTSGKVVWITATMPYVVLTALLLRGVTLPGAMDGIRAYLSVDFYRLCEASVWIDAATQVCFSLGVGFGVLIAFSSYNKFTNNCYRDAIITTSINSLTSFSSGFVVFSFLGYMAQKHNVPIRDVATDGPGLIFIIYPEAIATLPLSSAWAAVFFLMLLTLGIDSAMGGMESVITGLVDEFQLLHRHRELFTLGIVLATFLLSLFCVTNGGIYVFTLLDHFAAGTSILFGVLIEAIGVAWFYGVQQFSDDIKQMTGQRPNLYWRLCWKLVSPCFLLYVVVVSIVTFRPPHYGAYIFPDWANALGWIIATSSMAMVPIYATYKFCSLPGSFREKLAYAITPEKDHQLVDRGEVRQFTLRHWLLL", "experiment": "Radioreceptor binding assay, dopamine transporter ([3H]GBR-12935), rat brain corpus striatum membranes", "conditions": "for Ki: [3H]GBR-12935 0.4 nM, 45 min at 4° C., Tris buffer pH 7.4, rat corpus striatum, ±SEM, read-out: Dopamine Transporter (DAT) (Ki); for DAT/5-HTT Selectivity: ratio of Ki for the dopamine transporter to the Ki for the serotonin transporter"}, "[2]": {"molecular_target": "T2, serotonin transporter (Rattus norvegicus, UniProt P31652)", "T2 construct": "rat brain corpus striatum (for the dopamine transporter) or frontoparietal cerebral cortex (for the serotonin and norepinephrine transporters); from tissue; host or cells: rat frontoparietal cerebral cortex, crude membrane fraction", "T2 sequence (P31652 whole entry)": "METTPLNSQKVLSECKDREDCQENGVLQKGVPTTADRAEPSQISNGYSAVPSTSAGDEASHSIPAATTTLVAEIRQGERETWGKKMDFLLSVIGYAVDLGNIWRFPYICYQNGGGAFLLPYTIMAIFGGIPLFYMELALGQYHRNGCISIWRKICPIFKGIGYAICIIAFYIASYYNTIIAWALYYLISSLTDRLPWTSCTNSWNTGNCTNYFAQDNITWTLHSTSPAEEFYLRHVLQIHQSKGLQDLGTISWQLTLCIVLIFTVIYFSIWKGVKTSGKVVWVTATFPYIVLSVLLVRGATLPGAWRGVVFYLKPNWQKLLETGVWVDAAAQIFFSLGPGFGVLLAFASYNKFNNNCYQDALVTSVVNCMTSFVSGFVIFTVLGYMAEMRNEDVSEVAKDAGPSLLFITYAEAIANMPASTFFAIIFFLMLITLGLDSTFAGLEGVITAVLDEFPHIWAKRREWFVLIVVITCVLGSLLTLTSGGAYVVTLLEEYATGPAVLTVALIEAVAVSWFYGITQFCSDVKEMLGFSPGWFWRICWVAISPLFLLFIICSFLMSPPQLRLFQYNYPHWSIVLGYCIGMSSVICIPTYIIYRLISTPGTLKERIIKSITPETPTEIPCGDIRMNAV", "experiment": "Radioreceptor binding assay, serotonin transporter ([3H]paroxetine), rat frontoparietal cerebral cortex membranes", "conditions": "[3H]paroxetine 0.2 nM, 60 min at 20° C., Tris buffer pH 7.4, rat frontoparietal cortex; ±SEM; read-out: Serotonin Transporter (5-HTT) (Ki)"}},
  "data": [
    {"substance": "N-(tricarbonylrheniumcyclopentadienylbutan-1-one-4-yl)-2β-carbomethoxy-3β-(4-chlorophenyl)nortropane [RBI-235]", "values": [
      {"measurement": "Ki", "setting": "[1]", "value": "1.29 ± 0.1", "unit": "nM"},
      {"measurement": "DAT/5-HTT Selectivity", "setting": "[1]", "value": 3.49},
      {"measurement": "Ki", "setting": "[2]", "value": "0.37 ± 0.04", "unit": "nM"}
    ]},
    {"substance": "3β-(4-iodophenyl)-2β-(tricarbonylrheniumcyclopentadienylcarboxymethyl)tropane [RBI-211]", "values": [
      {"measurement": "Ki", "setting": "[1]", "value": "7.22 ± 1.06", "unit": "nM"},
      {"measurement": "DAT/5-HTT Selectivity", "setting": "[1]", "value": 0.21},
      {"measurement": "Ki", "setting": "[2]", "value": "34.6 ± 3.4", "unit": "nM"}
    ]},
    {"substance": "3β-(4-Chlorophenyl)-2β-tricarbonylrheniumcyclopentadienylcarboxymethyl)tropane [RBI-219]", "values": [
      {"measurement": "Ki", "setting": "[1]", "value": "4.41 ± 0.76", "unit": "nM"},
      {"measurement": "DAT/5-HTT Selectivity", "setting": "[1]", "value": 0.37},
      {"measurement": "Ki", "setting": "[2]", "value": "11.9 ± 1.7", "unit": "nM"}
    ]},
    {"substance": "N-(tricarbonylrheniumcyclopentadienylcarboxypropyl)-2β-carbomethoxy-3β-(4-chlorophenyl)nortropane [RBI-232]", "values": [
      {"measurement": "Ki", "setting": "[1]", "value": "2.66 ± 0.33", "unit": "nM"},
      {"measurement": "DAT/5-HTT Selectivity", "setting": "[1]", "value": 4.75},
      {"measurement": "Ki", "setting": "[2]", "value": "0.56 ± 0.08", "unit": "nM"}
    ]},
    {"substance": "N-(tricarbonylmanganesecyclopentadienylbutan-1-one-4-yl)-2β-carbomethoxy-3β-(4-chlorophenyl)nortropane [RBI-233]", "values": [
      {"measurement": "Ki", "setting": "[1]", "value": "1.67 ± 0.39", "unit": "nM"},
      {"measurement": "DAT/5-HTT Selectivity", "setting": "[1]", "value": 2},
      {"measurement": "Ki", "setting": "[2]", "value": "0.84 ± 0.06", "unit": "nM"}
    ]}
  ]
}
